# Test results reported in US10617656B2, “Methods of increasing the cytotoxicity of chemotherapeutic agents with multisubstrate inhibitors of histone, protein-Lys, polyamine acetylation, and polyamine metabolism” (Vanderbilt University, priority 2010, dated 2020).
# System: thymidine dimers in DNA of H358 cells
# Assay: Nucleotide excision repair assay (thymidine dimer slot blot) after UVC
# Format: cell-based
# Conditions: 50 μM 1a, 24 hours after 40 J/m^2 UVC (untreated: 50%)
# Experimental: Also shown are controls for no treatment (“c” minus 1a) or treatment with 1a only (“c” plus 1a). Each lane represents 60 μg protein. […] Each lane represents 60 μg protein.
# For NER, a slot blot immunoassay was used to detect the loss of thymidine dimers from the DNA of UVC treated cells as previously described. An antibody specific for cyclobutane pyrimidine dimers, the major photoproduct produced by UVC treatment, was purchased from Kamiya Biomedical Co (Seattle, Wash.; anti-thymidine dimer, clone KTM53) and used at 1:40 dilution.
smiles,measurement,value
"CC(C)(COP(=O)(O)OP(=O)(O)OC[C@H]1O[C@@H](n2cnc3c(N)ncnc32)[C@H](O)[C@@H]1OP(=O)(O)O)[C@@H](O)C(=O)NCCC(=O)NCCSCC(=O)NCCCNCCCCN [1a, spermidine[N1]-CoA]",decrease of thymidine dimers,40%
